Key:
Test in all cases: biochemical
Type in all cases: biochemical
[1] = target: 363 human kinases (including Aurora A/B/C) (Homo sapiens, UniProt P68400); conditions: CK2a, [ATP] 20 µM, read-out: % Enzyme Activity (relative to DMSO controls); for remaining activity at 0.1 µM: 100 nM; for remaining activity at 0.5 µM: 500 nM
Source text: (§1) However, the Aurora A/B selectivity ratios derived from our in vitro and in vivo data can be compared to prioritize inhibitors.

[2] = target: T1, 363 human kinases (including Aurora A/B/C) (Homo sapiens, UniProt O95382); conditions: MEKK6; for remaining activity at 0.1 µM: 100 nM; for remaining activity at 0.1 µM / remaining activity at 0.5 µM: read-out: % Enzyme Activity (relative to DMSO controls)
T1 sequence (O95382 1-1288): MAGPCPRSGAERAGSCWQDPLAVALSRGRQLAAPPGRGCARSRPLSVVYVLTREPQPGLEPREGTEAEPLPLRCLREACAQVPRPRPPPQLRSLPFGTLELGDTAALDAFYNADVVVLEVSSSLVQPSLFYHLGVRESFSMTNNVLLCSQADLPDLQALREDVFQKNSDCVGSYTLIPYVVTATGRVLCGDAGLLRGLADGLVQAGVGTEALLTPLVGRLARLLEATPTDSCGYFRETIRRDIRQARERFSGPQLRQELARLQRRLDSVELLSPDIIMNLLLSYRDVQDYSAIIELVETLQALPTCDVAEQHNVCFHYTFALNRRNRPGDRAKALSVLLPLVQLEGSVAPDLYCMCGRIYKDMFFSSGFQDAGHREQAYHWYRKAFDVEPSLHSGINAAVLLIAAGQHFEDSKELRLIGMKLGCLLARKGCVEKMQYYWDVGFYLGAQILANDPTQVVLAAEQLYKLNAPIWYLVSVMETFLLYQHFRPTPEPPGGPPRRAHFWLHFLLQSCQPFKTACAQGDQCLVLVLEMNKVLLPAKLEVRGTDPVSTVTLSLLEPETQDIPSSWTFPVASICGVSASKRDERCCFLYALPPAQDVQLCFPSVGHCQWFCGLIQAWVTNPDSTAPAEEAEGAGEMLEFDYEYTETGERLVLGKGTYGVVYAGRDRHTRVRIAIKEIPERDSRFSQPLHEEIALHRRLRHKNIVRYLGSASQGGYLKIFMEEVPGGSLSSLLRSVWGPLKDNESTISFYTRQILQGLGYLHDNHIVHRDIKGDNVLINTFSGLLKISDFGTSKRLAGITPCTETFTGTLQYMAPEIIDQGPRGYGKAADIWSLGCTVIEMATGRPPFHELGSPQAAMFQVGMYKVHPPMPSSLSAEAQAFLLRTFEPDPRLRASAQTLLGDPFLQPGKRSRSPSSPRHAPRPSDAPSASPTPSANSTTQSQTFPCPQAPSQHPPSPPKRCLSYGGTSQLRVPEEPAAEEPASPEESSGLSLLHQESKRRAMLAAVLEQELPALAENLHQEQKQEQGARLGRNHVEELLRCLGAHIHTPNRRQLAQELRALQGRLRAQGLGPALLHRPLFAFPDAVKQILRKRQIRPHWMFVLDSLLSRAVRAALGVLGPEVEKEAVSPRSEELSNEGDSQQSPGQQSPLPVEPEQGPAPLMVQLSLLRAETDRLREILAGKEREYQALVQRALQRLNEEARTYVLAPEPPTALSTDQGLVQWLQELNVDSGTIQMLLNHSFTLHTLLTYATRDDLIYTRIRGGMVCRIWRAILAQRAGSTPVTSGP
Source text: as §1

[3] = target: 363 human kinases (including Aurora A/B/C) (Homo sapiens, UniProt P23458); conditions: JAK1; for remaining activity at 0.1 µM: 100 nM; for remaining activity at 0.1 µM / remaining activity at 0.5 µM: read-out: % Enzyme Activity (relative to DMSO controls)
Chain of 363 human kinases (including Aurora A/B/C) (Homo sapiens, UniProt P23458) (P23458 whole entry): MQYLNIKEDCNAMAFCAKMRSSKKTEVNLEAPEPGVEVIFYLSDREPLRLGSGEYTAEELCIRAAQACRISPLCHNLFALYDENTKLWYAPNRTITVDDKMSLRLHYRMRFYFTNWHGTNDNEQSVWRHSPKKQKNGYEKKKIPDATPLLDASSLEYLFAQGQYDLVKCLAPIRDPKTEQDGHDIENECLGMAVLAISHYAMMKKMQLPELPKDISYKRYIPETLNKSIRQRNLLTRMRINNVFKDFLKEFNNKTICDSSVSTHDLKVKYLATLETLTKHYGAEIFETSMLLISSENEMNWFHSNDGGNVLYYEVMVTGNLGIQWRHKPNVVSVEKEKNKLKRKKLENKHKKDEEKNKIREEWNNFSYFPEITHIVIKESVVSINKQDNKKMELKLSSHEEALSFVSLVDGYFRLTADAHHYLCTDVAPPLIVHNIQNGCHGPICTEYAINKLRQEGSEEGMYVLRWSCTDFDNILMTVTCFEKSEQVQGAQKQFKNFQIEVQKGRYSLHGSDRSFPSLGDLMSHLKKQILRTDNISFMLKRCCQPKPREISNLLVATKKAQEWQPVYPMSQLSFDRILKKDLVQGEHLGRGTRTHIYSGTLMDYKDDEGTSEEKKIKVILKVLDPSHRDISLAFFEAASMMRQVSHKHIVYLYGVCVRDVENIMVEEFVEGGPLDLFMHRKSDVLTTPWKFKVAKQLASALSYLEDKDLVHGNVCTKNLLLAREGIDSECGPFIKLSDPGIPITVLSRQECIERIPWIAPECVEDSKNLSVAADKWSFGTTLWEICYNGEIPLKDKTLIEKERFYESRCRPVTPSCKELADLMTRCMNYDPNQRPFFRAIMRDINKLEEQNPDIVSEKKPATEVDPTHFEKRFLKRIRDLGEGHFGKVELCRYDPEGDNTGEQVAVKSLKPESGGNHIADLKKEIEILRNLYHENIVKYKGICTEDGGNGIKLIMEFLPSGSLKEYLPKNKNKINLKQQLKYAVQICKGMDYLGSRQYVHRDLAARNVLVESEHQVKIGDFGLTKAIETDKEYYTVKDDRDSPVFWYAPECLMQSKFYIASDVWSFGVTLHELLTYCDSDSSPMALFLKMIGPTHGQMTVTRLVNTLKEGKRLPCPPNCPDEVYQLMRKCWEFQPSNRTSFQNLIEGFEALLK
Source text: as §1

[4] = target: 363 human kinases (including Aurora A/B/C) (Homo sapiens, UniProt Q52WX2); conditions: SBK1; for remaining activity at 0.1 µM: 100 nM; for remaining activity at 0.1 µM / remaining activity at 0.5 µM: read-out: % Enzyme Activity (relative to DMSO controls)
Chain of 363 human kinases (including Aurora A/B/C) (Homo sapiens, UniProt Q52WX2) (Q52WX2 whole entry): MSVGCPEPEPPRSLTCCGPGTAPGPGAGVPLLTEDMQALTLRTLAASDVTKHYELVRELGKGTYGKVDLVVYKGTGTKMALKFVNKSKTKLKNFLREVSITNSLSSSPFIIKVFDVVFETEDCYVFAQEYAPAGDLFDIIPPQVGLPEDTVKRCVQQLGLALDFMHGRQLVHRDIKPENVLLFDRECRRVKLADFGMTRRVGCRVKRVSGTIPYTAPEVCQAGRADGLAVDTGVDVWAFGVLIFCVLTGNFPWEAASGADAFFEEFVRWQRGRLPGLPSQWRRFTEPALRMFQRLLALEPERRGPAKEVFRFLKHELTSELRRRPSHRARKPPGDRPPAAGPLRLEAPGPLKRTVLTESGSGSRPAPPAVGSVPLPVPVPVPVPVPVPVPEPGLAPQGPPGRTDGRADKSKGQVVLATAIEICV
Source text: as §1

[5] = target: T2, 363 human kinases (including Aurora A/B/C) (Homo sapiens, UniProt Q13237); conditions: PKG2/PRKG2; for remaining activity at 0.1 µM: 100 nM; for remaining activity at 0.1 µM / remaining activity at 0.5 µM: read-out: % Enzyme Activity (relative to DMSO controls)
T2 sequence (Q13237 1-762): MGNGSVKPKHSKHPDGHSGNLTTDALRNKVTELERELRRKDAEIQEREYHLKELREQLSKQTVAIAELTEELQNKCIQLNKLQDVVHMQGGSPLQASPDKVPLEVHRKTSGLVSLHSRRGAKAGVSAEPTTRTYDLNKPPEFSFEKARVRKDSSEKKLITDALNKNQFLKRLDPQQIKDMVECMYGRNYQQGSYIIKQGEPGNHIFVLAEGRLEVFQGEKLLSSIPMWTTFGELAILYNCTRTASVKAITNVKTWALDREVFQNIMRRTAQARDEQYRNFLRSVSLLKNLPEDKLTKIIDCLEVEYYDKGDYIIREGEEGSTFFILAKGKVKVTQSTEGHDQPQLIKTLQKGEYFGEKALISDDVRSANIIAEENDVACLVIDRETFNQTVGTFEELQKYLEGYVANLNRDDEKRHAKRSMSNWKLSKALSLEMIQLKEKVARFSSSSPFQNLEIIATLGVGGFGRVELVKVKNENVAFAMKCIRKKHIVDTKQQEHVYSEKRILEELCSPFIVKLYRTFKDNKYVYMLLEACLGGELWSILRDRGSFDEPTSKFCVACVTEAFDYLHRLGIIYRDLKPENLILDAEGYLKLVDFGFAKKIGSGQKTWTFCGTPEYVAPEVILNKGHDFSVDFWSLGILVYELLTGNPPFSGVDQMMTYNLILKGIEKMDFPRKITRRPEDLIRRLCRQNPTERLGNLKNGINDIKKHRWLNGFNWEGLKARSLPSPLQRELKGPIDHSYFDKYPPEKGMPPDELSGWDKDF
Source text: as §1

[6] = target: 363 human kinases (including Aurora A/B/C) (Homo sapiens, UniProt Q02750); conditions: MEK1; for remaining activity at 0.1 µM: 100 nM; for remaining activity at 0.1 µM / remaining activity at 0.5 µM: read-out: % Enzyme Activity (relative to DMSO controls)
Chain of 363 human kinases (including Aurora A/B/C) (Homo sapiens, UniProt Q02750) (Q02750 whole entry): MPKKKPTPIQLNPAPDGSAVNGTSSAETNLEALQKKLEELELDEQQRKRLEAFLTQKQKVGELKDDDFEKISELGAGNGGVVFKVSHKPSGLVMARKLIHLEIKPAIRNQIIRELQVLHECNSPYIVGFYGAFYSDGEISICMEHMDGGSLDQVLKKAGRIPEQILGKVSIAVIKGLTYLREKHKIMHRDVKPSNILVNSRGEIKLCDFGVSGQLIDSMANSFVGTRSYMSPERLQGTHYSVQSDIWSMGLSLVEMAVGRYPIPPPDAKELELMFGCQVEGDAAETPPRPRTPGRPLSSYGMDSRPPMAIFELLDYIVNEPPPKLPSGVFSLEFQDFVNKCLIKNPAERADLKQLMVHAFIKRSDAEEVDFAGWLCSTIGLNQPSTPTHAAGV
Source text: as §1

[7] = target: T3, 363 human kinases (including Aurora A/B/C) (Homo sapiens, UniProt P53778); conditions: P38g; for remaining activity at 0.1 µM: 100 nM; for remaining activity at 0.1 µM / remaining activity at 0.5 µM: read-out: % Enzyme Activity (relative to DMSO controls)
T3 sequence (P53778 1-367): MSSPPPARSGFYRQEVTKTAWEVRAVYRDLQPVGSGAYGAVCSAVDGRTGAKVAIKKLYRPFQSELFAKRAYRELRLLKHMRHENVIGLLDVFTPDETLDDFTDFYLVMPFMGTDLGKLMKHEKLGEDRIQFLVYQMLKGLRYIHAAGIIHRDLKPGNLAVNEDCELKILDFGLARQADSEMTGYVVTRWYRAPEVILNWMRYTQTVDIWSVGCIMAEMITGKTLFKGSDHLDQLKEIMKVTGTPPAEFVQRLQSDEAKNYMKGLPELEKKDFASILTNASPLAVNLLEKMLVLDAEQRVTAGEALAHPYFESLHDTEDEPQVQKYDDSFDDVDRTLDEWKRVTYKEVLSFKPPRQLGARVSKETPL
Source text: as §1

Chain of 363 human kinases (including Aurora A/B/C) (Homo sapiens, UniProt P68400) (P68400 whole entry): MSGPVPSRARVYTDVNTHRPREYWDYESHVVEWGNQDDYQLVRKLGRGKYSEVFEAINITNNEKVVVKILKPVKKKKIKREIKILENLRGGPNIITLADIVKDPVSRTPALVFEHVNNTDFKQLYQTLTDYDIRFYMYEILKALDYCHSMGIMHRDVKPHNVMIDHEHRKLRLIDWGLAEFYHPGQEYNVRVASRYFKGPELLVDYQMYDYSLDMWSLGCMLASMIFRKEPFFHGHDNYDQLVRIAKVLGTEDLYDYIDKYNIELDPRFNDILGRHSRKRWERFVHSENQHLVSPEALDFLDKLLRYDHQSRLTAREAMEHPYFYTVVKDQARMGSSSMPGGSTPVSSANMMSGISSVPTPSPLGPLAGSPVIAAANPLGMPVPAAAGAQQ

CCn1cc(-c2ccnc3[nH]c(-c4cccc(CN(C)C)c4)cc23)c(-c2ccc(NC(=O)N(C)C)cc2)n1 [GSK1070916]
remaining activity at 0.1 µM [1]: 99.6% | remaining activity at 0.1 µM [2]: 94.5% | remaining activity at 0.1 µM [3]: 95.8% | remaining activity at 0.1 µM [4]: 101% | remaining activity at 0.1 µM [5]: 97.2% | remaining activity at 0.1 µM [6]: 102% | remaining activity at 0.1 µM [7]: 115%

O=C(O)[C@]1(Cc2cccc(Nc3nccs3)n2)CC[C@@H](Oc2cccc(Cl)c2F)CC1 [MK-5108]
remaining activity at 0.1 µM [1]: 104% | remaining activity at 0.5 µM [1]: 105% | remaining activity at 0.1 µM [2]: 99.6% | remaining activity at 0.5 µM ([2]; 500 nM): 97.4% | remaining activity at 0.1 µM [3]: 99.4% | remaining activity at 0.5 µM ([3]; 500 nM): 61.6% | remaining activity at 0.1 µM [4]: 102% | remaining activity at 0.5 µM ([4]; 500 nM): 96.3% | remaining activity at 0.1 µM [5]: 106% | remaining activity at 0.5 µM ([5]; 500 nM): 97.3% | remaining activity at 0.1 µM [6]: 93.4% | remaining activity at 0.5 µM ([6]; 500 nM): 96.2% | remaining activity at 0.1 µM [7]: 100% | remaining activity at 0.5 µM ([7]; 500 nM): 112%

O=C(c1cccc(Cl)c1F)N1CCN(Cc2cccc(Nc3nccs3)n2)CC1 [MK-8745]
remaining activity at 0.5 µM [1]: 91.9% | % Enzyme Activity (relative to DMSO controls) ([2]; 500 nM): 83.68% | remaining activity at 0.5 µM ([2]; 500 nM): 87.7% | % Enzyme Activity (relative to DMSO controls) ([3]; 500 nM): 103.50% | remaining activity at 0.5 µM ([3]; 500 nM): 104% | % Enzyme Activity (relative to DMSO controls) ([4]; 500 nM): 95.86% | remaining activity at 0.5 µM ([4]; 500 nM): 96.4% | % Enzyme Activity (relative to DMSO controls) ([5]; 500 nM): 95.25% | remaining activity at 0.5 µM ([5]; 500 nM): 95.3% | % Enzyme Activity (relative to DMSO controls) ([6]; 500 nM): 96.32% | remaining activity at 0.5 µM ([6]; 500 nM): 97% | % Enzyme Activity (relative to DMSO controls) ([7]; 500 nM): 107.28% | remaining activity at 0.5 µM ([7]; 500 nM): 110%
